From ChEMBL document CHEMBL1130072, “Probing the active sites of monoamine oxidase A and B with 1,4-disubstituted tetrahydropyridine substrates and inactivators” (J Med Chem, 1997)

Columns and labels:
[1] = target: T1, Amine oxidase [flavin-containing] A (Homo sapiens, UniProt P21397); assay: Tested for maximum velocity of monoamine oxidase A catalyzed oxidation; design: unit not given here
T1 sequence (P21397 whole entry): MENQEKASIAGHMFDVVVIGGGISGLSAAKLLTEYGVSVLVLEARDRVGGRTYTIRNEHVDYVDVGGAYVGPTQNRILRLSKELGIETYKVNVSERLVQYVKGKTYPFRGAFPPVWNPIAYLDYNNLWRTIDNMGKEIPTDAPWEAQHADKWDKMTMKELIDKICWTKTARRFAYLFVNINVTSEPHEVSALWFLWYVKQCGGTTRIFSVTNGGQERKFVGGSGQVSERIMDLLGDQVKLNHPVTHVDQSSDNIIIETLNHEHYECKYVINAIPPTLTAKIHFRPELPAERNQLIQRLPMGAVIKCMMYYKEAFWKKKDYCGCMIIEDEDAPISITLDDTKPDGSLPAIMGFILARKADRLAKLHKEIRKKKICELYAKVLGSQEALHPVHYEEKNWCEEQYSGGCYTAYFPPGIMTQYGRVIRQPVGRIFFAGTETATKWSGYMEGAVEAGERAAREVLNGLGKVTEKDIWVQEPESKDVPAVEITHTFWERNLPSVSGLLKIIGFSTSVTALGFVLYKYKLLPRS

[2] = target: T2, Amine oxidase [flavin-containing] B (Bos taurus, UniProt P56560); assay: Tested for maximum velocity of monoamine oxidase B catalyzed oxidation; design: unit not given here
T2 sequence (P56560 whole entry): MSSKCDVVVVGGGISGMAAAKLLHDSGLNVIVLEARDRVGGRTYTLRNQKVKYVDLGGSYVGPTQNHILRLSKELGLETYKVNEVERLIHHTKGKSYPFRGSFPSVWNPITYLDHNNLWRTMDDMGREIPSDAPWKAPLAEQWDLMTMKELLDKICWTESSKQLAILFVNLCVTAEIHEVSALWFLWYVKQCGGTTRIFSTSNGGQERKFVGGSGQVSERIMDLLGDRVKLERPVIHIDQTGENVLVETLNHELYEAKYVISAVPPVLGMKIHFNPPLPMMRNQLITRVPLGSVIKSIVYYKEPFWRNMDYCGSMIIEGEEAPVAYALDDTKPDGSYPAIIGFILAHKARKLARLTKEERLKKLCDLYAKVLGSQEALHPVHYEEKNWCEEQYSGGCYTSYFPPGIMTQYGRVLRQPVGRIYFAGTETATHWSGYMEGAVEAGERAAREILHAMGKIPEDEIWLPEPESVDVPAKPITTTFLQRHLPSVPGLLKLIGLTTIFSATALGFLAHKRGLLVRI

[3] = target: T1, Amine oxidase [flavin-containing] A; assay: Vmax/Km values for MAO-A; design: unit not given here
[4] = target: T3, Amine oxidase [flavin-containing] B (Homo sapiens, UniProt P27338); assay: Vmax/Km values for MAO-B; design: unit not given here
T3 sequence (P27338 whole entry): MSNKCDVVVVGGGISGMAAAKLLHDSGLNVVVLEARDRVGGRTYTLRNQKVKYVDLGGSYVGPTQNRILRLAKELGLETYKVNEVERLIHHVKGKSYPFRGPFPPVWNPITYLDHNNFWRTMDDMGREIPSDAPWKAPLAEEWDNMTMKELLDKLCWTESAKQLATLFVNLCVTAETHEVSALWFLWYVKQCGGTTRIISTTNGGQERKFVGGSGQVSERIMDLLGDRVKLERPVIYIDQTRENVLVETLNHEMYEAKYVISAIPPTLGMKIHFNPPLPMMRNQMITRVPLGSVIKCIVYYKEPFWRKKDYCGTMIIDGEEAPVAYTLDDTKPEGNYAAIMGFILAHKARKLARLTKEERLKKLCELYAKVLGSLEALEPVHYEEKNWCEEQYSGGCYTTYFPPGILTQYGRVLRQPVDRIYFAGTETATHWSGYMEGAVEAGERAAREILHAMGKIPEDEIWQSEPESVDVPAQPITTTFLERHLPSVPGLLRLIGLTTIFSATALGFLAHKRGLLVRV

[5] = target: T2, Amine oxidase [flavin-containing] B; assay: Tested for inhibition- binding affinity against monoamine oxidase B catalyzed oxidation; NID = no inactivation properties detected.
[6] = target: T1, Amine oxidase [flavin-containing] A; assay: Tested for Km, the substrate concentration with gives half maximum velocity of the monoamine oxidase A catalyzed oxidation; NSD = no substrate properties detected
[7] = target: T2, Amine oxidase [flavin-containing] B; assay: Tested for Km, the substrate concentration with gives half maximum velocity of the monoamine oxidase B catalyzed oxidation; NSD = no substrate properties detected
[8] = target: T1, Amine oxidase [flavin-containing] A; assay: Tested for Kinetic data against the monoamine oxidase A catalyzed oxidation.
[9] = target: T2, Amine oxidase [flavin-containing] B; assay: Tested for Kinetic data against the monoamine oxidase B catalyzed oxidation.
[10] = target: T4, Monoamine oxidase (Homo sapiens, UniProt P21397+P27338); assay: Selectivity Coefficient measured as ratio of Vmax/Km value of MAO-B to that of MAO-A; format: protein assay
T4 sequence (P21397 whole entry): T1 sequence (P21397 whole entry)
T4 sequence (P27338 whole entry): T3 sequence (P27338 whole entry)

[11] = target: T1, Amine oxidase [flavin-containing] A; assay: Tested for Kinetic data against the monoamine oxidase A catalyzed oxidation;NSD = No substrate properties detected
[12] = target: T1, Amine oxidase [flavin-containing] A; assay: Tested for inhibition- binding affinity against monoamine oxidase A catalyzed oxidation; NID = no inactivation properties detected.

| Structure (SMILES) | Vmax [2] | Ratio [4] | Vmax / Km [8] [M⁻¹ s⁻¹] | Vmax / Km [9] [M⁻¹ s⁻¹] | Selectivity coefficient [10] | other results |
| --- | --- | --- | --- | --- | --- | --- |
| CN1CC=C(c2ccccc2-c2ccccc2)CC1 | 20 | 12 | – | – | – | Vmax [1]: 107; Ratio [3]: 892 |
| C1=C(c2ccccc2-c2ccccc2)CCN(C2CC2)C1 | – | – | – | – | – | Ki [5]: No inhibition |
| CN1CC=C(c2ccc(-c3ccccc3)cc2)CC1 | – | – | – | – | – | Km [6]: No substrate detected; Km [7]: No substrate detected |
| CN1CC=C(c2cccc(-c3ccccc3)c2)CC1 | 153 | 157 | – | – | – | Km [6]: No substrate detected |
| CC(C)c1ccccc1C1=CCN(C)CC1 | – | – | 18700 | 850 | 0.05 | – |
| Cc1cccc(C2=CCN(C)CC2)c1 | – | – | 1270 | 10800 | 8.5 | – |
| CN1CC=C(c2cccc3ccccc23)CC1 | 51 | 364 | – | – | – | Vmax [1]: 526; Ratio [3]: 862 |
| COc1cccc(C2=CCN(C)CC2)c1 | – | – | – | 15600 | – | Vmax / Km [11]: No substrate detected |
| CN1CC=C(c2ccc3ccccc3c2)CC1 | 42 | 71 | – | – | – | Vmax [1]: 204; Ratio [3]: 443 |
| Cc1ccccc1C1=CCN(C)CC1 | – | – | 9800 | 21470 | 2.19 | – |
| C1=C(c2ccc(-c3ccccc3)cc2)CCN(C2CC2)C1 | – | – | – | – | – | Ki [12]: No inhibition |
| CN1CC=C(c2ccccc2)CC1 | 204 | 523 | – | – | 3.65 | Vmax [1]: 20; Ratio [3]: 143 |
| CN1CC=C(c2cccc(Oc3ccccc3)c2)CC1 | – | – | 92800 | – | – | – |
| CN1CC=C(c2c[nH]c3ccccc23)CC1.O=C(O)C(=O)O | 358 | – | – | 6620 | – | – |
| CCc1ccccc1C1=CCN(C)CC1 | – | – | 11500 | 4920 | 0.43 | – |
